Measured values as given in publication PMC10580383, “Development of Melanocortin 4 Receptor Agonists by Exploiting Animal-Derived Macrocyclic, Disulfide-Rich Peptide Scaffolds” (ACS Pharmacology & Translational Science, 2023).
Read-outs that look alike come from different tables or passages of the source. Where a SMILES comes first, the peptide text is derived from it. Bridges are numbered along the chain shown (N, C = ends). Where no end group is shown, it is not given here. [ ]: non-standard residue; d: D form. pGlu = O=C1CC[C@@H](C(=O)O)N1

B1: tachyplesin-1-like peptide 1 (peptide)
peptide: KWCFRVCPH[dF]HWCYRRCR-NH2
modifications: disulfide 7-13, 3-17; N-terminus assumed
SMILES: CC(C)[C@@H]1NC(=O)[C@H](CCCNC(=N)N)NC(=O)[C@H](Cc2ccccc2)NC(=O)[C@@H](NC(=O)[C@H](Cc2c[nH]c3ccccc23)NC(=O)[C@@H](N)CCCCN)CSSC[C@@H](C(=O)N[C@@H](CCCNC(=N)N)C(N)=O)NC(=O)[C@H](CCCNC(=N)N)NC(=O)[C@H](CCCNC(=N)N)NC(=O)[C@H](Cc2ccc(O)cc2)NC(=O)[C@@H]2CSSC[C@H](NC1=O)C(=O)N1CCC[C@H]1C(=O)N[C@@H](Cc1c[nH]cn1)C(=O)N[C@H](Cc1ccccc1)C(=O)N[C@@H](Cc1c[nH]cn1)C(=O)N[C@@H](Cc1c[nH]c3ccccc13)C(=O)N2
B2: tachyplesin-1-like peptide 3 (peptide)
peptide: KWCFRVCH[dF]RWCYRRCR-NH2
modifications: disulfide 7-12, 3-16; N-terminus assumed
SMILES: CC(C)[C@@H]1NC(=O)[C@H](CCCNC(=N)N)NC(=O)[C@H](Cc2ccccc2)NC(=O)[C@@H](NC(=O)[C@H](Cc2c[nH]c3ccccc23)NC(=O)[C@@H](N)CCCCN)CSSC[C@@H](C(=O)N[C@@H](CCCNC(=N)N)C(N)=O)NC(=O)[C@H](CCCNC(=N)N)NC(=O)[C@H](CCCNC(=N)N)NC(=O)[C@H](Cc2ccc(O)cc2)NC(=O)[C@@H]2CSSC[C@H](NC1=O)C(=O)N[C@@H](Cc1c[nH]cn1)C(=O)N[C@H](Cc1ccccc1)C(=O)N[C@@H](CCCNC(=N)N)C(=O)N[C@@H](Cc1c[nH]c3ccccc13)C(=O)N2
B3: tachyplesin-1-like peptide 2 (peptide)
peptide: KWCFRVCH[dF]HWCYRRCR-NH2
modifications: disulfide 7-12, 3-16; N-terminus assumed
SMILES: CC(C)[C@@H]1NC(=O)[C@H](CCCNC(=N)N)NC(=O)[C@H](Cc2ccccc2)NC(=O)[C@@H](NC(=O)[C@H](Cc2c[nH]c3ccccc23)NC(=O)[C@@H](N)CCCCN)CSSC[C@@H](C(=O)N[C@@H](CCCNC(=N)N)C(N)=O)NC(=O)[C@H](CCCNC(=N)N)NC(=O)[C@H](CCCNC(=N)N)NC(=O)[C@H](Cc2ccc(O)cc2)NC(=O)[C@@H]2CSSC[C@H](NC1=O)C(=O)N[C@@H](Cc1c[nH]cn1)C(=O)N[C@H](Cc1ccccc1)C(=O)N[C@@H](Cc1c[nH]cn1)C(=O)N[C@@H](Cc1c[nH]c3ccccc13)C(=O)N2
B4: arenicin-3-like peptide 3 (peptide)
peptide: GFCWYVCVPH[dF]HWRVCYRRCN-NH2
modifications: disulfide 7-16, 3-20; N-terminus assumed
SMILES: CC(C)[C@@H]1NC(=O)[C@H](CCCNC(=N)N)NC(=O)[C@H](Cc2c[nH]c3ccccc23)NC(=O)[C@H](Cc2c[nH]cn2)NC(=O)[C@@H](Cc2ccccc2)NC(=O)[C@H](Cc2c[nH]cn2)NC(=O)[C@@H]2CCCN2C(=O)[C@H](C(C)C)NC(=O)[C@@H]2CSSC[C@H](NC1=O)C(=O)N[C@@H](Cc1ccc(O)cc1)C(=O)N[C@@H](CCCNC(=N)N)C(=O)N[C@@H](CCCNC(=N)N)C(=O)N[C@H](C(=O)N[C@@H](CC(N)=O)C(N)=O)CSSC[C@H](NC(=O)[C@H](Cc1ccccc1)NC(=O)CN)C(=O)N[C@@H](Cc1c[nH]c3ccccc13)C(=O)N[C@@H](Cc1ccc(O)cc1)C(=O)N[C@@H](C(C)C)C(=O)N2

What was measured:
[1] = target: T1, mouse melanocortin 4 receptor (MC4R) (Mus musculus, UniProt P56450); experiment: cAMP second messenger quantification assay (Cisbio HTRF cAMP Gs kit); type: cell-based
T1 construct: expressed in transfected cells; host or cells: HEK293 / HEK293T, transient transfection
Protocol: Figure 3 Functional cAMP assay of synthesized peptide analogues targeting MC4R. The accumulation of adenylyl cyclase-catalyzed cAMP of (A) tachylplesin-1-like peptides (Ta1LPs, green), (B) protegrin-4-like peptides ([…], pink), (C) arenicin-3-like peptides (Ar3LPs, orange), and (D) gomesin-like peptides (GoLPs, blue) was measured in HEK293 cells transiently expressing mouse melanocortin 4 receptor (MC4R). […] Data are from three independent experiments and are shown as mean ± SEM.
Assays were performed on cells transiently expressing mouse MC4R-EGFP. BamHI and SacI restriction sites were used to clone mouse MC4R N-terminally into a pEGFP-N1 vector. Peptide ligands were assayed for […] in a 384-well format and triplicate according to the Cisbio protocol. Briefly, 5 μL containing 10,000 cells per well was incubated with 5 μL of peptide solutions prepared 2× in 1× stimulation buffer. Following an incubation of peptide ligands at 37 °C for 30 min, d2-labeled cAMP and cryptate-labeled antibody (5 μL of each) were added to the mixture and further incubated for at least 1 h at room temperature. Subsequently, cAMP levels were quantified on a Flexstation 3 (Molecular Devices, San Jose, USA) using homogeneous time-resolved fluorescence resonance energy transfer and the ratio 665/620 nm. Samples were measured in technical triplicates.
Data analysis was performed with GraphPad Prism (GraphPad Software, San Diego). The potency (EC50) and maximum efficacy (Emax) values of peptide ligands were derived from functional data fitted to three- or four-parameter nonlinear regression curves constrained to a bottom of zero.

[2] = target: mouse melanocortin 4 receptor fused to EGFP (mouse) (UniProt P56450)
[3] = HEK293, read-out: efficacy cAMP Emax ± SD

T1 sequence (P56450 whole entry): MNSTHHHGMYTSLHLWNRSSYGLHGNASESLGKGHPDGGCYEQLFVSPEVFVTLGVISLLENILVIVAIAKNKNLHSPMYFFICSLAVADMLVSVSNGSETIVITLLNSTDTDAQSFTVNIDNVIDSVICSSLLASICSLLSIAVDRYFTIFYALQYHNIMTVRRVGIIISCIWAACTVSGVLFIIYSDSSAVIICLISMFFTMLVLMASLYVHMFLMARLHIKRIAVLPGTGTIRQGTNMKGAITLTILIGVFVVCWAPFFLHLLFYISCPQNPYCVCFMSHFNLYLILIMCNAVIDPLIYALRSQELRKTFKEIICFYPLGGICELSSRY
mouse melanocortin 4 receptor fused to EGFP (mouse), sequence (P56450 whole entry, the tested form may be a part): as the sequence (P56450 whole entry) above

| Molecule | EC50 [1] [nM] | Emax [1, 3] [%] | cAMP accumulation (Cisbio HTRF) in HEK293 cells transiently expressing mouse MC4R-EGFP: EC50 [2] [nM] | cAMP accumulation (Cisbio HTRF) in HEK293 cells transiently expressing mouse MC4R-EGFP: Emax (normalised to NDP-α-MSH) [2] [%] | Emax ([1]; HEK293; read-out: efficacy cAMP Emax ± SD) [%] |
| --- | --- | --- | --- | --- | --- |
| CC(C)[C@@H]1NC(=O)[C@H](CCCNC(=N)N)NC(=O)[C@H](Cc2ccccc2)NC(=O)[C@@H](NC(=O)[C@H](Cc2c[nH]c3ccccc23)NC(=O)[C@@H](N)CCCCN)CSSC[C@@H](C(=O)N[C@@H](CCCNC(=N)N)C(N)=O)NC(=O)[C@H](CCCNC(=N)N)NC(=O)[C@H](CCCNC(=N)N)NC(=O)[C@H](Cc2ccc(O)cc2)NC(=O)[C@@H]2CSSC[C@H](NC1=O)C(=O)N[C@@H](Cc1c[nH]cn1)C(=O)N[C@H](Cc1ccccc1)C(=O)N[C@@H](Cc1c[nH]cn1)C(=O)N[C@@H](Cc1c[nH]c3ccccc13)C(=O)N2 [Ta1LP2] (H-KWCFRVCH[dF]HWCYRRCR-NH2; disulfide 3-16, 7-12) | 50.1 | 97 ± 6 | – | – | – |
| NDP-α-MSH (peptide) | – | – | 0.04 | 100 | – |
| CC(C)[C@@H]1NC(=O)[C@H](CCCNC(=N)N)NC(=O)[C@H](Cc2c[nH]c3ccccc23)NC(=O)[C@H](Cc2c[nH]cn2)NC(=O)[C@@H](Cc2ccccc2)NC(=O)[C@H](Cc2c[nH]cn2)NC(=O)[C@@H]2CCCN2C(=O)[C@H](C(C)C)NC(=O)[C@@H]2CSSC[C@H](NC1=O)C(=O)N[C@@H](Cc1ccc(O)cc1)C(=O)N[C@@H](CCCNC(=N)N)C(=O)N[C@@H](CCCNC(=N)N)C(=O)N[C@H](C(=O)N[C@@H](CC(N)=O)C(N)=O)CSSC[C@H](NC(=O)[C@H](Cc1ccccc1)NC(=O)CN)C(=O)N[C@@H](Cc1c[nH]c3ccccc13)C(=O)N[C@@H](Cc1ccc(O)cc1)C(=O)N[C@@H](C(C)C)C(=O)N2 [Ar3LP3] (H-GFCWYVCVPH[dF]HWRVCYRRCN-NH2; disulfide 3-20, 7-16) | 1000 | – | – | – | 117 ± 18 |
| CC(C)C[C@@H]1NC(=O)[C@H](CCCNC(=N)N)NC(=O)[C@H](CCCNC(=N)N)NC(=O)[C@@H](NC(=O)[C@@H]2CCC(=O)N2)CSSC[C@@H](C(=O)N[C@@H](CCCNC(=N)N)C(=O)NCC(=O)N[C@@H](CCCNC(=N)N)C(N)=O)NC(=O)[C@H](Cc2ccc(O)cc2)NC(=O)[C@H]([C@@H](C)O)NC(=O)[C@H](C(C)C)NC(=O)[C@@H]2CSSC[C@H](NC1=O)C(=O)N[C@@H](Cc1c[nH]cn1)C(=O)N[C@H](Cc1ccccc1)C(=O)N[C@@H](CCCNC(=N)N)C(=O)N[C@@H](Cc1c[nH]c3ccccc13)C(=O)N2 [GoLP3] ([pGlu]CRRLCH[dF]RWCVTYCRGR-NH2; disulfide 2-15, 6-11) | 39.8 | 104 ± 5 | – | – | – |
| CC(C)[C@@H]1NC(=O)[C@H](CCCNC(=N)N)NC(=O)[C@H](Cc2ccccc2)NC(=O)[C@@H](NC(=O)[C@H](Cc2c[nH]c3ccccc23)NC(=O)[C@@H](N)CCCCN)CSSC[C@@H](C(=O)N[C@@H](CCCNC(=N)N)C(N)=O)NC(=O)[C@H](CCCNC(=N)N)NC(=O)[C@H](CCCNC(=N)N)NC(=O)[C@H](Cc2ccc(O)cc2)NC(=O)[C@@H]2CSSC[C@H](NC1=O)C(=O)N1CCC[C@H]1C(=O)N[C@@H](Cc1c[nH]cn1)C(=O)N[C@H](Cc1ccccc1)C(=O)N[C@@H](Cc1c[nH]cn1)C(=O)N[C@@H](Cc1c[nH]c3ccccc13)C(=O)N2 [Ta1LP1] (H-KWCFRVCPH[dF]HWCYRRCR-NH2; disulfide 3-17, 7-13) | 20 | 97 ± 4 | – | – | – |
| CC(C)[C@@H]1NC(=O)[C@H](CCCNC(=N)N)NC(=O)[C@H](Cc2ccccc2)NC(=O)[C@@H](NC(=O)[C@H](Cc2c[nH]c3ccccc23)NC(=O)[C@@H](N)CCCCN)CSSC[C@@H](C(=O)N[C@@H](CCCNC(=N)N)C(N)=O)NC(=O)[C@H](CCCNC(=N)N)NC(=O)[C@H](CCCNC(=N)N)NC(=O)[C@H](Cc2ccc(O)cc2)NC(=O)[C@@H]2CSSC[C@H](NC1=O)C(=O)N[C@@H](Cc1c[nH]cn1)C(=O)N[C@H](Cc1ccccc1)C(=O)N[C@@H](CCCNC(=N)N)C(=O)N[C@@H](Cc1c[nH]c3ccccc13)C(=O)N2 [Ta1LP3] (H-KWCFRVCH[dF]RWCYRRCR-NH2; disulfide 3-16, 7-12) | 16.7 | 98 ± 4 | – | – | – |
| CC(C)C[C@H](NC(=O)[C@H](CCCNC(=N)N)NC(=O)CNC(=O)CNC(=O)[C@@H](N)CCCNC(=N)N)C(=O)N[C@H]1CSSC[C@@H](C(=O)N[C@H](C(=O)NCC(=O)N[C@@H](CCCNC(=N)N)C(N)=O)C(C)C)NC(=O)[C@H](Cc2ccccc2)NC(=O)[C@@H]2CSSC[C@H](NC(=O)[C@H](Cc3ccc(O)cc3)NC1=O)C(=O)N[C@@H](Cc1c[nH]cn1)C(=O)N[C@H](Cc1ccccc1)C(=O)N[C@@H](CCCNC(=N)N)C(=O)N[C@@H](Cc1c[nH]c3ccccc13)C(=O)N2 [Pr4LP3] (H-RGGRLCYCH[dF]RWCFCVGR-NH2; disulfide 6-15, 8-13) | 200 | 99 ± 6 | – | – | – |
| CC(C)C[C@H](NC(=O)[C@H](CCCNC(=N)N)NC(=O)CNC(=O)CNC(=O)[C@@H](N)CCCNC(=N)N)C(=O)N[C@H]1CSSC[C@@H](C(=O)N[C@H](C(=O)NCC(=O)N[C@@H](CCCNC(=N)N)C(N)=O)C(C)C)NC(=O)[C@H](Cc2ccccc2)NC(=O)[C@@H]2CSSC[C@H](NC(=O)[C@H](Cc3ccc(O)cc3)NC1=O)C(=O)N[C@@H](Cc1c[nH]cn1)C(=O)N[C@H](Cc1ccccc1)C(=O)N[C@@H](Cc1c[nH]cn1)C(=O)N[C@@H](Cc1c[nH]c3ccccc13)C(=O)N2 [Pr4LP2] (H-RGGRLCYCH[dF]HWCFCVGR-NH2; disulfide 6-15, 8-13) | 158 | 97 ± 4 | – | – | – |
| B1 | – | – | 20 | 97 | – |
| B2 | – | – | 17 | 98 | – |
| B3 | – | – | 48 | 97 | – |
| B4 | – | – | 1000 | 117 | – |
